Test results from the supplement of paper PMC10307832.

How the values were obtained:
Assay in all cases: relative viability (nuclei count vs DMSO), 5 days (fraction); higher = more cells survive
A-427 = tested on: A-427
Procedure, shortened: (§1)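 One day after seeding in 1536-well plates, lung cancer cell lines were dosed by pin tool. Dosing was either single-drug or a fixed anchor-drug dose plus five library-drug doses (not always all listed) in √10 steps. After 5 days, nuclei were stained in one fix-and-stain step and counted on 4× images, and relative viability is the nuclei count of treated wells over that of vehicle wells, given as the median of duplicate plates.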

EKVX = tested on: EKVX
Procedure, shortened: as §1

H3255 = tested on: H3255
Procedure, shortened: as §1

LK-2 = tested on: LK-2
Procedure, shortened: as §1

NCI-H1355 = tested on: NCI-H1355
Procedure, shortened: as §1

NCI-H1666 = tested on: NCI-H1666
Procedure, shortened: as §1

NCI-H1755 = tested on: NCI-H1755
Procedure, shortened: as §1

NCI-H1944 = tested on: NCI-H1944
Procedure, shortened: as §1

NCI-H2085 = tested on: NCI-H2085
Procedure, shortened: as §1

NCI-H2228 = tested on: NCI-H2228
Procedure, shortened: as §1

NCI-H2347 = tested on: NCI-H2347
Procedure, shortened: as §1

NCI-H3122 = tested on: NCI-H3122
Procedure, shortened: as §1

NCI-H322M = tested on: NCI-H322M
Procedure, shortened: as §1

NCI-H358 = tested on: NCI-H358
Procedure, shortened: as §1

NCI-H441 = tested on: NCI-H441
Procedure, shortened: as §1

NCI-H460 = tested on: NCI-H460
Procedure, shortened: as §1

NCI-H520 = tested on: NCI-H520
Procedure, shortened: as §1

NCI-H596 = tested on: NCI-H596
Procedure, shortened: as §1

NCI-H650 = tested on: NCI-H650
Procedure, shortened: as §1

NCI-H838 = tested on: NCI-H838
Procedure, shortened: as §1

SW 1573 = tested on: SW 1573
Procedure, shortened: as §1

In the case of O=c1[nH]c2ccccc2n1C1CCN(CCCC(c2ccc(F)cc2)c2ccc(F)cc2)CC1 [Pimozide] + C[C@]1(O)C[C@@H](c2nc(-c3ccc4ccc(-c5ccccc5)nc4c3)c3c(N)nccn32)C1 [Linsitinib] (partner 1 µM), the relative viability (A-427; first compound 0.08 µM) is reported as 0.985, the relative viability (A-427; first compound 0.253 µM) is reported as 1.14 and the relative viability (A-427; first compound 0.8 µM) is reported as 1.13. For the same compound, the relative viability (A-427; first compound 2.53 µM) was 1.15, the relative viability (A-427; first compound 8 µM) was 1.08 and the relative viability (EKVX; first compound 0.253 µM) was 0.837. For the same compound, the relative viability (EKVX; first compound 0.8 µM) was 0.901, the relative viability (EKVX; first compound 2.53 µM) was 0.969 and the relative viability (EKVX; first compound 8 µM) was 0.953. It also gave a relative viability (H3255; first compound 0.253 µM) of 0.905, a relative viability (H3255; first compound 0.8 µM) of 0.96 and a relative viability (H3255; first compound 2.53 µM) of 0.959. For the same compound, the relative viability (H3255; first compound 8 µM) was 0.903, the relative viability (LK-2; first compound 0.08 µM) was 0.52 and the relative viability (LK-2; first compound 0.253 µM) was 0.543. For the same compound, the relative viability (LK-2; first compound 0.8 µM) was 0.493, the relative viability (LK-2; first compound 2.53 µM) was 0.37 and the relative viability (LK-2; first compound 8 µM) was 0.371. The relative viability (NCI-H1355; first compound 0.08 µM) was 0.701, the relative viability (NCI-H1355; first compound 0.253 µM) was 0.804 and the relative viability (NCI-H1355; first compound 0.8 µM) was 0.758. The relative viability (NCI-H1355; first compound 2.53 µM) was 0.803, the relative viability (NCI-H1355; first compound 8 µM) was 0.762 and the relative viability (NCI-H1666; first compound 0.08 µM) was 0.786. For the same compound, the relative viability (NCI-H1666; first compound 0.253 µM) was 0.723, the relative viability (NCI-H1666; first compound 0.8 µM) was 0.711 and the relative viability (NCI-H1666; first compound 2.53 µM) was 0.73. The relative viability (NCI-H1666; first compound 8 µM) was 0.635, the relative viability (NCI-H1755; first compound 0.08 µM) was 0.94 and the relative viability (NCI-H1755; first compound 0.253 µM) was 1.02. It also gave a relative viability (NCI-H1755; first compound 0.8 µM) of 0.97, a relative viability (NCI-H1755; first compound 2.53 µM) of 0.939 and a relative viability (NCI-H1755; first compound 8 µM) of 0.845. It also gave a relative viability (NCI-H1944; first compound 0.08 µM) of 1.02, a relative viability (NCI-H1944; first compound 0.253 µM) of 1.07 and a relative viability (NCI-H1944; first compound 0.8 µM) of 1.05. For the same compound, the relative viability (NCI-H1944; first compound 2.53 µM) was 1.3, the relative viability (NCI-H1944; first compound 8 µM) was 1.22 and the relative viability (NCI-H2085; first compound 0.08 µM) was 0.916. For the same compound, the relative viability (NCI-H2085; first compound 0.253 µM) was 0.934, the relative viability (NCI-H2085; first compound 0.8 µM) was 0.818 and the relative viability (NCI-H2085; first compound 2.53 µM) was 0.942. The relative viability (NCI-H2085; first compound 8 µM) was 0.762, the relative viability (NCI-H2228; first compound 0.08 µM) was 0.475 and the relative viability (NCI-H2228; first compound 0.253 µM) was 0.909. It also gave a relative viability (NCI-H2228; first compound 0.8 µM) of 0.404, a relative viability (NCI-H2228; first compound 2.53 µM) of 0.392 and a relative viability (NCI-H2228; first compound 8 µM) of 0.291. The relative viability (NCI-H2347; first compound 0.08 µM) was 1.03, the relative viability (NCI-H2347; first compound 0.253 µM) was 0.941 and the relative viability (NCI-H2347; first compound 0.8 µM) was 0.836. For the same compound, the relative viability (NCI-H2347; first compound 2.53 µM) was 0.944, the relative viability (NCI-H2347; first compound 8 µM) was 0.958 and the relative viability (NCI-H3122; first compound 0.08 µM) was 1.01. For the same compound, the relative viability (NCI-H3122; first compound 0.253 µM) was 1.06, the relative viability (NCI-H3122; first compound 0.8 µM) was 1 and the relative viability (NCI-H3122; first compound 2.53 µM) was 1.05. For the same compound, the relative viability (NCI-H3122; first compound 8 µM) was 1.06, the relative viability (NCI-H322M; first compound 0.253 µM) was 0.875 and the relative viability (NCI-H322M; first compound 0.8 µM) was 0.79. The relative viability (NCI-H322M; first compound 2.53 µM) was 0.834, the relative viability (NCI-H322M; first compound 8 µM) was 0.971 and the relative viability (NCI-H358; first compound 0.08 µM) was 0.739. For the same compound, the relative viability (NCI-H358; first compound 0.253 µM) was 0.852, the relative viability (NCI-H358; first compound 0.8 µM) was 0.649 and the relative viability (NCI-H358; first compound 2.53 µM) was 0.643. For the same compound, the relative viability (NCI-H358; first compound 8 µM) was 0.693, the relative viability (NCI-H441; first compound 0.08 µM) was 0.496 and the relative viability (NCI-H441; first compound 0.253 µM) was 0.53. For the same compound, the relative viability (NCI-H441; first compound 0.8 µM) was 0.752, the relative viability (NCI-H441; first compound 2.53 µM) was 0.483 and the relative viability (NCI-H441; first compound 8 µM) was 0.389. The relative viability (NCI-H460; first compound 0.08 µM) was 0.964, the relative viability (NCI-H460; first compound 0.253 µM) was 0.725 and the relative viability (NCI-H460; first compound 0.8 µM) was 0.707. For the same compound, the relative viability (NCI-H460; first compound 2.53 µM) was 0.727, the relative viability (NCI-H460; first compound 8 µM) was 0.649 and the relative viability (NCI-H520; first compound 0.08 µM) was 0.894. For the same compound, the relative viability (NCI-H520; first compound 0.253 µM) was 1, the relative viability (NCI-H520; first compound 0.8 µM) was 1.01 and the relative viability (NCI-H520; first compound 2.53 µM) was 0.995. It also gave a relative viability (NCI-H520; first compound 8 µM) of 0.937, a relative viability (NCI-H596; first compound 0.08 µM) of 1.16 and a relative viability (NCI-H596; first compound 0.253 µM) of 1.12. It also gave a relative viability (NCI-H596; first compound 0.8 µM) of 1.04, a relative viability (NCI-H596; first compound 2.53 µM) of 0.895 and a relative viability (NCI-H596; first compound 8 µM) of 0.998. It also gave a relative viability (NCI-H650; first compound 0.08 µM) of 0.842, a relative viability (NCI-H650; first compound 0.253 µM) of 0.792 and a relative viability (NCI-H650; first compound 0.8 µM) of 0.911. It also gave a relative viability (NCI-H650; first compound 2.53 µM) of 0.791, a relative viability (NCI-H650; first compound 8 µM) of 0.847 and a relative viability (NCI-H838; first compound 0.08 µM) of 1.01. It also gave a relative viability (NCI-H838; first compound 0.253 µM) of 0.999, a relative viability (NCI-H838; first compound 0.8 µM) of 0.885 and a relative viability (NCI-H838; first compound 2.53 µM) of 1.01. For the same compound, the relative viability (NCI-H838; first compound 8 µM) was 1.04, the relative viability (SW 1573; first compound 0.08 µM) was 0.744 and the relative viability (SW 1573; first compound 0.253 µM) was 0.778. It also gave a relative viability (SW 1573; first compound 0.8 µM) of 0.75, a relative viability (SW 1573; first compound 2.53 µM) of 0.721 and a relative viability (SW 1573; first compound 8 µM) of 0.853.
